This assay has as its target T1, FLAG-tagged full length PHD2 (Homo sapiens, UniProt Q9GZT9).
T1 construct: FLAG-tagged full length PHD2; FLAG; made in house; host or cells: baculovirus-infected Sf9 cells
Briefly: PHD2 inhibition assay (time resolved fluorescence, HIF-1α peptide hydroxylation, VHL detection). In kind it is biochemical. Particulars: 0.2 μM 2-oxoglutarate, 0.5 μM HIF-1α peptide, 2 hr at room temperature; read-out: PHD2 Activity (PHD2 binding activity expressed as IC50). Here is the method: To each well of a 96-well plate was added 1 μL of test compound in DMSO and 20 μl of assay buffer (50 mM Tris pH 7.4/0.01% Tween-20/0.1 mg/ml bovine serum albumin/10 μM ferrous sulfate/1 mM sodium ascorbate/20 μg/ml catalase) containing 0.15 μg/ml FLAG-tagged full length PHD2 expressed in and purified from baculovirus-infected Sf9 cells. After a 30 min preincubation at room temperature, the enzymatic reactions were initiated by the addition of 4 μL of substrates (final concentrations of 0.2 μM 2-oxoglutarate and 0.5 μM HIF-1α peptide biotinyl-[…]).
T1 sequence (Q9GZT9 whole entry): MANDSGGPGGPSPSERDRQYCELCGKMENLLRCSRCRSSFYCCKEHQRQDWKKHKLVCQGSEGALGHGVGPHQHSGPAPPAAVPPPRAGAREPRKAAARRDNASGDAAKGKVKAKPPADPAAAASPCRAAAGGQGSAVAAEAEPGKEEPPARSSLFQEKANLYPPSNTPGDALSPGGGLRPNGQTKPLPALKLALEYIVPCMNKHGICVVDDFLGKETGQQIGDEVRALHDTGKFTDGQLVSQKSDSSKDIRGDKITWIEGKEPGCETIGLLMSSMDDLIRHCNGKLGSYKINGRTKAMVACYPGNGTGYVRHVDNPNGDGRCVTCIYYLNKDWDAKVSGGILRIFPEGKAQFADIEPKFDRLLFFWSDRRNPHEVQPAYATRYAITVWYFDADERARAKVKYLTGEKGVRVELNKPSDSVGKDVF
For `O=C(O)CNC(=O)c1c(O)c2c(n(Cc3ccc(Cl)nc3)c1=O)CSC2` [Example 1, N-({1-[(6-chloropyridin-3-yl)methyl]-4-hydroxy-2-oxo-1,2,5,7-tetrahydrothieno[3,4-b]pyridin-3-yl}carbonyl)glycine], the IC50 is no more than 10 nM. On to `O=C(O)CNC(=O)c1c(O)c2c(n(Cc3ccc(Br)cc3)c1=O)CSC2` [Example 2], for which the IC50 is no more than 10 nM. In the case of `N#Cc1ccc(Cn2c3c(c(O)c(C(=O)NCC(=O)O)c2=O)CSC3)cc1` [Example 3, N-{[1-(4-cyanobenzyl)-4-hydroxy-2-oxo-1,2,5,7-tetrahydrothieno[3,4-b]pyridin-3-yl]carbonyl}glycine] it was no more than 10 nM; in that of `O=C(O)CNC(=O)c1c(O)c2c(n(Cc3ccc(C(F)(F)F)cc3)c1=O)CSC2` [Example 4, N-({4-hydroxy-2-oxo-1-[4-(trifluoromethyl)benzyl]-1,2,5,7-tetrahydrothieno[3,4-b]pyridin-3-yl]carbonyl)glycine], no more than 10 nM; in that of `O=C(O)CNC(=O)c1c(O)c2c(n(Cc3ccc(C(F)(F)F)nc3)c1=O)CSC2` [Example 5, N-[(4-hydroxy-2-oxo-1-{[6-(trifluoromethyl)pyridin-3-yl]methyl]-1,2,5,7-tetrahydrothieno[3,4-b]pyridin-3-yl)carbonyl]glycine], no more than 10 nM. Next, `CS(=O)(=O)c1ccc(Cn2c3c(c(O)c(C(=O)NCC(=O)O)c2=O)CSC3)cc1` [Example 6, N-({4-hydroxy-1-[4-(methylsulfonyl)benzyl]-2-oxo-1,2,5,7-tetrahydrothieno[3,4-d]pyridin-3-yl]carbonyl)glycine]: no more than 10 nM; `O=C(O)CNC(=O)c1c(O)c2c(n(Cc3nc(-c4ccccc4)cs3)c1=O)CSC2` [Example 7, N-({4-hydroxy-2-oxo-1-[(4-phenyl-1,3-thiazol-2-yl)methyl]-1,2,5,7-tetrahydrothieno[3,4-b]pyridin-3-yl}carbonyl)glycine]: no more than 10 nM; `CC(C)c1ccc(Cn2c3c(c(O)c(C(=O)NCC(=O)O)c2=O)CSC3)cc1` [Example 8, N-{[4-hydroxy-1-(4-isopropylbenzyl)-2-oxo-1,2,5,7-tetrahydrothieno[3,4-b]pyridin-3-yl]carbonyl]glycine]: no more than 10 nM.

Regarding `CC(C)(C)c1ccc(Cn2c3c(c(O)c(C(=O)NCC(=O)O)c2=O)CSC3)cc1` [Example 9, N-{[1-(4-tert-butylbenzyl)-4-hydroxy-2-oxo-1,2,5,7-tetrahydrothieno[3,4-b]pyridin-3-yl]caxbonyl]glycine], the IC50 is no more than 10 nM.

On to `O=C(O)CNC(=O)c1c(O)c2c(n(Cc3noc(-c4ccccc4)n3)c1=O)CSC2` [Example 10, N-({4-hydroxy-2-oxo-1-[(5-phenyl-1,2,4-oxadiazol-3-yl)methyl]-1,2,5,7-tetrahydrothieno[3,4-b]pyridin-3-yl]carbonyl)glycine], for which the IC50 is no more than 10 nM. `O=C(O)CNC(=O)c1c(O)c2c(n(Cc3nc4ccccc4s3)c1=O)CSC2` [Example 11, N-{[1-(1,3-benzothiazol-2-ylmethyl)-4-hydroxy-2-oxo-1,2,5,7-tetrahydrothieno[3,4-b]pyridin-3-yl]carbonyl]glycine]: the 50% inhibitory concentration (IC50) was no more than 10 nM. Consider `O=C(O)CNC(=O)c1c(O)c2c(n(-c3ccc(Br)cc3)c1=O)CSC2` [Example 12, N-{[1-(4-bromophenyl)-4-hydroxy-2-oxo-1,2,5,7-tetrahydrothieno[3,4-b]pyridin-3-yl]carbonyl]glycine], for which the IC50 was no more than 10 nM. Take `O=C(O)CNC(=O)c1c(O)c2c(n(Cc3cc(F)cc(C(F)(F)F)c3)c1=O)CSC2` [Example 13, N-({l-[3-fluoro-5-(trifluoromethyl)benzyl]-4-hydroxy-2-oxo-1,2,5,7-tetrahydrothieno[3,4-b]pyridin-3-yl]carbonyl)glycine]: the IC50 lay in the range of 10 to 100 nM.

Regarding `O=C(O)CNC(=O)c1c(O)c2c(n(Cc3cccc(Cl)c3)c1=O)CSC2` [Example 14, N-{[1-(3-chlorobenzyl)-4-hydroxy-2-oxo-1,2,5,7-tetrahydrothieno[3,4-b]pyridin-3-yl]carbonyl}glycine], the IC50 is no more than 10 nM. Next, `Cc1cc(Cl)ccc1Cn1c2c(c(O)c(C(=O)NCC(=O)O)c1=O)CSC2` [Example 15, N-{[1-(4-chloro-2-methylbenzyl)-4-hydroxy-2-oxo-1,2,5,7-tetrahydrothieno[3,4-b]pyridin-3-yl]carbonyl}glycine]: no more than 10 nM. Regarding `O=C(O)CNC(=O)c1c(O)c2c(n(Cc3ccc(Cl)cc3)c1=O)CSC2` [Example 16, N-{[1-(4-chlorobenzyl)-4-hydroxy-2-oxo-1,2,5,7-tetrahydrothieno[3,4-b]pyridin-3-yl]carbonyl}glycine], the IC50 is no more than 10 nM. Next, `CCc1ccc(Cn2c3c(c(O)c(C(=O)NCC(=O)O)c2=O)CSC3)cc1` [Example 17, N-{[1-(4-ethylbenzyl)-4-hydroxy-2-oxo-1,2,5,7-tetrahydrothieno[3,4-b]pyridin-3-yl]carbonyl}glycine]: no more than 10 nM.

For `O=C(O)CNC(=O)c1c(O)c2c(n(Cc3ccc(Cl)c(C(F)(F)F)c3)c1=O)CSC2` [Example 18, N-({1-[4-chloro-3-(trifluoromethyl)benzyl]-4-hydroxy-2-oxo-1,2,5,7-tetrahydrothieno[3,4-b]pyridin-3-yl}carbonyl)glycine], the IC50 is no more than 10 nM. In the case of `O=C(O)CNC(=O)c1c(O)c2c(n(Cc3ccc(Cl)c(Cl)c3)c1=O)CSC2` [Example 19, N-{[1-(3,4-dichlorobenzyl)-4-hydroxy-2-oxo-1,2,5,7-tetrahydrothieno[3,4-b]pyridin-3-yl]carbonyl}glycine] it was no more than 10 nM; in that of `O=C(O)CNC(=O)c1c(O)c2c(n(Cc3ccc(OC(F)(F)F)cc3)c1=O)CSC2` [Example 20, N-({4-hydroxy-2-oxo-1-[4-(trifluoromethoxy)benzyl]-1,2,5,7-tetrahydrothieno[3,4-b]pyridin-3-yl}carbonyl)glycine], no more than 10 nM. In the case of `O=C(O)CNC(=O)c1c(O)c2c(n(Cc3coc(-c4ccccc4)n3)c1=O)CSC2` [Example 21, N-({4-hydroxy-2-oxo-1-[(2-phenyl-1,3-oxazol-4-yl)methyl]-1,2,5,7-tetrahydrothieno[3,4-b]pyridin-3-yl}carbonyl)glycine] it was no more than 10 nM.

In the case of `O=C(O)CNC(=O)c1c(O)c2c(n(Cc3cc4ccccc4s3)c1=O)CSC2` [Example 22, N-{[1-(1-benzothien-2-ylmethyl)-4-hydroxy-2-oxo-1,2,5,7-tetrahydrothieno[3,4-b]pyridin-3-yl]carbonyl}glycine], the IC50 was no more than 10 nM. On to `O=C(O)CNC(=O)c1c(O)c2c(n(Cc3ccc(-n4cccn4)cc3)c1=O)CSC2` [Example 23, N-({4-hydroxy-2-oxo-1-[4-(1H-pyrazol-1-yl)benzyl]-1,2,5,7-tetrahydrothieno[3,4-b]pyridin-3-yl}carbonyl)glycine], for which the IC50 was no more than 10 nM. Next, `O=C(O)CNC(=O)c1c(O)c2c(n(Cc3cnn(-c4ccccc4)c3)c1=O)CSC2` [Example 24, N-({4-hydroxy-2-oxo-1-[(1-phenyl-1H-pyrazol-4-yl)methyl]-1,2,5,7-tetrahydrothieno[3,4-b]pyridin-3-yl}carbonyl)glycine]: no more than 10 nM; `Cc1ccc(-c2ccc(Cn3c4c(c(O)c(C(=O)NCC(=O)O)c3=O)CSC4)cc2)cc1` [Example 25, N-({4-hydroxy-1-[(4′-methylbiphenyl-4-yl)methyl]-2-oxo-1,2,5,7-tetrahydrothieno[3,4-b]pyridin-3-yl}carbonyl)glycine]: no more than 10 nM; `O=C(O)CNC(=O)c1c(O)c2c(n(Cc3cnc(-c4ccccc4F)cn3)c1=O)CSC2` [Example 26, N-[(1-{[5-(2-fluorophenyl)pyrazin-2-yl]methyl}-4-hydroxy-2-oxo-1,2,5,7-tetrahydrothieno[3,4-b]pyridin-3-yl)carbonyl]glycine]: no more than 10 nM.

In the case of `O=C(O)CNC(=O)c1c(O)c2c(n(Cc3ccc(-c4ccn[nH]4)cc3)c1=O)CSC2` [Example 27, N-({4-hydroxy-2-oxo-1-[4-(1H-pyrazol-5-yl)benzyl]-1,2,5,7-tetrahydrothieno[3,4-b]pyridin-3-yl}carbonyl)glycine], the IC50 is no more than 10 nM. In the case of `CC(=O)c1ccc(-c2ccc(Cn3c4c(c(O)c(C(=O)NCC(=O)O)c3=O)CSC4)cc2)cc1` [Example 28, N-({1-[(4′-acetylbiphenyl-4-yl)methyl]-4-hydroxy-2-oxo-1,2,5,7-tetrahydrothieno[3,4-b]pyridin-3-yl}carbonyl)glycine] it was no more than 10 nM; in that of `O=C(O)CNC(=O)c1c(O)c2c(n(Cc3ccc(-c4ccccc4)cc3)c1=O)CSC2` [Example 29, N-{[1-(biphenyl-4-ylmethyl)-4-hydroxy-2-oxo-1,2,5,7-tetrahydrothieno[3,4-b]pyridin-3-yl]carbonyl}glycine], no more than 10 nM; in that of `O=C(O)CNC(=O)c1c(O)c2c(n(Cc3ccc(-c4ccc(Cl)cc4)cc3)c1=O)CSC2` [Example 30, N-({1-[(4′-chlorobiphenyl-4-yl)methyl]-4-hydroxy-2-oxo-1,2,5,7-tetrahydrothieno[3,4-b]pyridin-3-yl}carbonyl)glycine], no more than 10 nM. In the case of `Cc1n[nH]c(C)c1-c1ccc(Cn2c3c(c(O)c(C(=O)NCC(=O)O)c2=O)CSC3)cc1` [Example 31, N-({1-[4-(3,5-dimethyl-1H-pyrazol-4-yl)benzyl]-4-hydroxy-2-oxo-1,2,5,7-tetrahydrothieno[3,4-b]pyridin-3-yl}carbonyl)glycine] it was no more than 10 nM. In the case of `O=C(O)CNC(=O)c1c(O)c2c(n(Cc3ccc(Oc4ccc(F)cc4)cc3)c1=O)CSC2` [Example 32, N-({l-[4-(4-fluorophenoxy)benzyl]-4-hydroxy-2-oxo-1,2,5,7-tetrahydrothieno[3,4-b]pyridin-3-yl}carbonyl)glycine] it was no more than 10 nM.

Broadly, the IC50 is the concentration at which inhibition is half-maximal.

Source of the values: patent US8445680B2, “Tetrahydrothieno pyridines” (Merck Sharp & Dohme Corp., priority 2008, dated 2013).
